According to patent US20200360365A1, “SUBSTITUTED HALO-QUINOLINE DERIVATES FOR USE IN THE TREATMENT OF LYMPHOMAS AND LEUKEMIA” (Instutut National de la Sante et de la Researche Medicale, priority 2018, published 2020):
Like-named read-outs stand apart in the source and are kept apart here.

Experiments:
[1] = molecular target: NIK (Homo sapiens, UniProt Q99558); settings: patent PCT/EP2017/067306; cited from earlier work
[2] = system: melanoma cell line A375; assay: In vitro dose response study, A375 proliferation; assay type: cell-based, human; settings: A375, 96h; for IC50: Homo sapiens, A-375, graded concentration, cell concentration
Method: The melanoma cell line A375 was treated during 96h with graded concentration of compounds 5, 38, 42 and 43. At the end of the culture period, the cell concentration was determined.

[3] = system: plck-GAPDH tumor (AITL-like lymphoma) engrafted in NSG mice; assay: Treatment of plck-GAPDH AITL lymphoma engrafted NSG mice; assay type: in vivo, mouse
Method: Tumor Transplantation into NOD/SCIDγc−/− (NSG) Mice
Single cell suspensions from spleen or lymph nodes of old (>18 months) plck-GAPDH mice with splenomegaly were injected intravenously (i.v.) into 6-8 week old NSG mice (1-2E7 splenocytes per mouse). Recipient mice were sacrificed for evaluation when the mice became weak and/or splenomegaly could be detected (30 to 60 days after injection). The different hematopoietic organs (liver, spleen, blood) were isolated and single cell suspension prepared for FACS analysis (see below).
Treatment with NIK Inhibitor
Plck-GAPDH tumors were injected into 10 NSG mice (see above) and 5 were treated with a newly developed chemical NIK inhibitor (compound 5 according to the invention) or with Vehicle. IP injections were performed every other day with compound 5 (250 μg in 100 μl DMSO/Tween-20/Labrafil) or vehicle (100 μl DMSO/Tween-20/Labrafil). The second NIK inhibitor used (compound 38 according to the invention) was more soluble and IP injections were performed every other day with compound 38 (250 μg in 100 μl NaCl 0,9%/mouse) or vehicle (100 μl NaCl 0,9%/mouse).
Two different plck-GAPDH tumors expressing high levels of PD-1 on the CD4^+ T cells were injected into 10 NSG mice and the mice were treated with anti-PD1 antibody (clone PMP1-14, BioXcell; 125 μg in PBS/mouse) or an isotope control antibody daily for the first 2 days post-tumor injection, then every other day.
Combined anti-PD1 and NIK Inhibitor Treatment
The mice were injected with antibody (anti-PD1 or isotype control) in the morning and compound 38 according to the invention (injected in the evening) daily for the first 2 days plck-GAPDH post-tumor injection, then every other day. Same concentration as for single treatments was used.
Recipient mice were sacrificed at endpoint (>10% weight loss or palpable splenomegaly). Single cell suspensions were prepared from the spleen, BM and liver for immunophenotypic FACS analysis.

[4] = Solubility; assay type: physicochemical
[5] = system: human Diffuse large B-cell lymphoma (DLBCL) B cell lines (U2932, KARPAS 422, SUDHL6, OCYL3); assay: B cell lymphoma proliferation assay; assay type: cell-based; settings: 10 μM, 96 h
Method: B Cell Lymphoma Proliferation Assay
The tested cancer cells are the following: the human Diffuse large B-cell lymphoma (DLBCL) cell lines: Karpas-422, SUDHL-6, U2932 and Oxyl3.
Cells were counted using a flow cytometer (MACQUANT, Miltenyi). 2E5 cells were seeded in 2 ml RPMI-GlutamaX supplemented with 10% FCS at start of the proliferation assay in a 6-well plate supplemented with the NIK Inhibitor (compound 38) at 10 μM for 96 h. The cell numbers at 96h were then determined by counting using a flow cytometer. We distinguished dead and living cells using DAPI staining.
Proliferation was calculated as followed:
Proliferation (%)=(Treated cell number/untreated cells)*100.
The average and standard deviation were determined from 3 independent experiments.

[6] = system: prostate cancer cells (PC3); assay: Cancer cell proliferation assay (trypan blue exclusion), PC3; assay type: cell-based, human; settings: 10 μM; proliferation normalized to DMSO-treated control
Method: (§1) Cancer cell proliferation assay (A375, A549, PC3, HT-29, MiaPaca-2 and MCF-7)
(§2) The tested cancer cells are the following: human melanoma cells (A375), lung carcinoma cells (A549), prostate cancer cells (PC3), colon adenocarcinoma (HT29), pancreas carcinoma (MiaPaca 2) and breast carcinoma (MCF-7).
(§3) Cells were counted using a Malassez chamber. The average and standard deviation were calculated from triplicate experiments. Antiproliferative effects were evaluated by trypan blue exclusion assay. Briefly, cells were seeded into 12-well plate and grown in media supplemented with indicated compound at 1 or 10μM for 48h or 96h. Cells were washed with PBS and detached by trypsinization, collected and colored by trypan blue.
(§4) Dead and living cells were counted and proliferation was calculated as follow: Proliferation (%)=[(treated cell number/untreated cells number)*100].
(§5) As a comparison, cell viability was also determined and calculated as follow: Viability (%)=100−[(dead cell number/total cells)*100].

[7] = system: senescence-associated β-galactosidase (SA-β-Gal); assay: Quantitative senescence-associated beta-galactosidase assay; assay type: cell-based; settings: SA-β-Gal 4-MUG cleavage; relative to DMSO-treated control
Source text: Quantitative Senescence-Associated Beta-Galactosidase Assay
The production of the fluorophore was monitored at an […] wavelength of 365/460 nm, as reported (Gary and Kindell, 2005)

[8] = system: breast carcinoma (MCF-7); assay: Cancer cell proliferation assay (trypan blue exclusion), MCF-7; assay type: cell-based, human; settings: 10 μM; proliferation normalized to DMSO-treated control
Method: as §1, §2, §3, §4, §5

[9] = system: colon adenocarcinoma (HT29); assay: Cancer cell proliferation assay (trypan blue exclusion), HT29; assay type: cell-based, human; settings: 10 μM; proliferation normalized to DMSO-treated control
Method: as §1, §2, §3, §4, §5

[10] = system: p21 (CDKN1A) mRNA in A375 cancer cells; assay: Quantitative RT-PCR analysis of p21 gene expression; assay type: cell-based, human; settings: 10 μM, 96 h
Method: (§6) Quantitative RT-PCR Analysis of EZH2 and p21 Gene Expression
(§7) Total RNA was isolated from cells using the RNAeasy minikit (Qiagen) according to the manufacturer's procedure. Reverse transcription was performed using the AMV reverse transcription system (Promega), and quantitative PCR was performed with Power Sybr green (Applied Biosystems, Life Technologies, Grand Island, N.Y.) following the manufacturer's instructions. The PCR was carried out on a Step One plus Real-Time PCR system (Applied Biosystems). All analyses were done in triplicate, and a melting curve analysis was performed to control for product quality and specificity. Expression levels were calculated using the comparative method of relative quantification, with SB34 as a normalizer. The data were analyzed for statistical significance using Student's t-test. The results are presented as the mean±SEM relative to the control.
(§8) PCR primers for EZH2 (accession number NM004456.4) and p21(CDKN1A) (accession number NM078467.2) were obtained from primer bank or primer depot (http://pga.mgh.harvard.edu/primerbank/, https://primerdepot.nci.nih.gov), and their specificity was verified using primer blast (http://www.ncbi.nlm.nih.gov/tools/primer-blast/).

[11] = system: EZH2 mRNA in A375 cancer cells; assay: Quantitative RT-PCR analysis of EZH2 gene expression; assay type: cell-based, human; settings: 10 μM, 96 h
Method: as §6, §7, §8

[12] = system: lung carcinoma cells (A549); assay: Cancer cell proliferation assay (trypan blue exclusion), A549; assay type: cell-based, human; settings: 10 μM; proliferation normalized to DMSO-treated control
Method: as §1, §2, §3, §4, §5

[13] = system: pancreas carcinoma (MiaPaca 2); assay: Cancer cell proliferation assay (trypan blue exclusion), MiaPaca-2; assay type: cell-based, human; settings: 10 μM; proliferation normalized to DMSO-treated control
Method: as §1, §2, §3, §4, §5

[14] = system: IFN-γ in supernatant of A375 cancer cells; assay: ELISA measurement of IFN-γ in supernatant; assay type: cell-based, human; settings: 10 μM, 96 h
Method: Supernatant from cells treated for 96 h was tested for human or mouse IFN-γ content via ELISA (peprotech, cat 900-k27 and 900-k98) kit following the manufacturer's instructions.

[15] = system: human melanoma cells (A375); assay: Cancer cell proliferation assay (trypan blue exclusion), A375; assay type: cell-based; settings: 10 μM; proliferation normalized to DMSO-treated control
Method: as §1, §2, §3, §4, §5

[16] = system: human melanocytes (MHN); assay: Melanocyte viability assay (MHN); assay type: cell-based; settings: 10 μM, 96 h; viability normalized to DMSO-treated control
Method: Melanocyte Viability Assay (MHN)
Cell viability effects were evaluated by trypan blue exclusion assay. Briefly, cells were seeded into 12-well plate and grown in media supplemented with indicated compound at 10 μM for 96 h. Cells were washed with PBS and detached by trypsinization, collected and colored by trypan blue. Dead and living cells were counted and cell viability was calculated as follow: Viability (%)=100−[(dead cell number/total cells)*100].

[17] = Microsomal stability (mouse liver microsomes); assay type: in vitro ADME; settings: mouse liver microsomes 0.5 mg/mL, NADPH 1 mM, 37° C.
Method: Microsomal Stability (Mouse Liver Microsomes)
Microsomal stability was evaluated with mouse liver microsomes (0.5 mg/mL) and NADPH cofactor (1 mM) at 37° C. The percentage of remaining compound is determined at 5 min by LC-MS by measuring the area under the peak of compound on the chromatogram.

[18] = plck-GAPDH tumor engrafted NSG mice

Chain of NIK (Q99558 whole entry): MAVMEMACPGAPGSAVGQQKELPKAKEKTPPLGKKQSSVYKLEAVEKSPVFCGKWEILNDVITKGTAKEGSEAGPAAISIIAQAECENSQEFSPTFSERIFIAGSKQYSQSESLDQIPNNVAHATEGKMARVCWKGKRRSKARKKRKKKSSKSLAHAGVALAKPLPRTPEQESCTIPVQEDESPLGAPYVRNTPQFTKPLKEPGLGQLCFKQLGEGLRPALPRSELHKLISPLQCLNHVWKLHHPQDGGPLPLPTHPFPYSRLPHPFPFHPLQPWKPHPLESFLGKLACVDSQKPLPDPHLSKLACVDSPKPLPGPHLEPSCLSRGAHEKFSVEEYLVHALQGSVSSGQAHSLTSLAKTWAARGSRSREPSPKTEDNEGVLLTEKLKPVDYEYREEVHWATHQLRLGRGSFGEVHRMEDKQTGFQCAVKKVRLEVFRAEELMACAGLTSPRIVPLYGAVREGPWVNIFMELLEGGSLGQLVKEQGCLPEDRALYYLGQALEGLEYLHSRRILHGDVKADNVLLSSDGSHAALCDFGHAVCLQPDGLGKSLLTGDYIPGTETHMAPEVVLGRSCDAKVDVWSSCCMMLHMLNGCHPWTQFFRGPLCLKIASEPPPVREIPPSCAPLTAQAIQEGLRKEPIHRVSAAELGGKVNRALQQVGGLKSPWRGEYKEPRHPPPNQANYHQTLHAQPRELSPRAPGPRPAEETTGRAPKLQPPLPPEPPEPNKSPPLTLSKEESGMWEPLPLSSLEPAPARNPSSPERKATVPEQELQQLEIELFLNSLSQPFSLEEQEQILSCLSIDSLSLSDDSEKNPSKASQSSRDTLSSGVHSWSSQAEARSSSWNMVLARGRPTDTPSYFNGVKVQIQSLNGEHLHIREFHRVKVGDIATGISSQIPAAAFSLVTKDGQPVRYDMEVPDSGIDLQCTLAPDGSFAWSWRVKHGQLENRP

Row | SMILES | anti-NIK activity [1] | concentration at which inhibition of A375 proliferation starts [2] | IC50 [2] [nM] | Cancer Cell Proliferation PC3 [6] [%] | % Senescence, conversion rate [7] [%] | Cancer Cell Proliferation MCF-7 [8] [%] | Cancer Cell Proliferation HT29 [9] [%] | qPCR p21 A375 mRNA [10] | qPCR EZH2 A375 mRNA [11] | Cancer Cell Proliferation A549 [12] [%] | Cancer Cell Proliferation MiaPaca-2 [13] [%] | ELISA IFN-γ (A375), IFN-γ concentration [14] | Cancer Cell Proliferation A375 [15] [%] | further results
1 | COc1ccc(Nc2ccnc3cc(Cl)ccc23)cc1 [Compound 5, N-(4-methoxyphenyl)-7-chloroquinolin-4-amine] | confirmed its activity in vitro | around 5 mM | 1330 |  |  |  |  |  |  |  |  |  |  | GC B cells in the spleen at sacrifice [3, 18]: completely devoid of GC B cells; survival of tumor engrafted NSG mice as compared to the control group ([3]; plck-GAPDH tumor engrafted NSG mice, IP treatment day 1 and 2, then every other day): significant increased survival
2 | COc1ccc(Nc2ccnc3cc(Cl)ccc23)cc1OC [Compound 38, N-(3,4-dimethoxyphenyl)-7-chloroquinolin-4-amine] | potent | around 5 mM | 560 |  |  |  |  |  |  |  |  |  |  | solubility [4]: more soluble; solubility ([4]; listed as COMPONENT 38): high solubility; survival of the plck-GAPDH tumor engrafted mice ([3]; NSG mice, compound 38 250 μg IP, anti-PD1 125 μg, every other day): up to 60%; B cells in the spleen at sacrifice [3, 18]: highly significant decrease; CD4+ T cells in the spleen [3, 18]: strong reduction; Tfh PD1high CD4+ population in the spleen [3, 18]: residual subpopulation; spleen size at sacrifice compared to controls [3, 18]: significant decrease in spleen size; CD8 cytotoxicity (IFNγ, granzyme B, perforin by cytotoxic CD8+ cells) ([3]; splenocytes at sacrifice, PMA/ionomycin 5 h): increasing CD8 IFNγ release; proliferation of B cell lymphoma cancer cell lines compared with controls (DMSO) [5]: strong inhibitory effect; cell viability of B cell lymphoma cell lines ([5]; data not shown): without affecting the cell viability
3 | COCCOc1ccc(Nc2ccnc3cc(Cl)ccc23)cc1 [Compound 42, 7-chloro-N-(4-(2-methoxyethoxy)phenyl)quinolin-4-amine] |  | around 5 mM |  | 14.1 | 645.9 | 11.9 | 3.5 | 6.79 fold relative to DMSO-treated control | 0.23 fold relative to DMSO-treated control | 19.5 | 7.8 | 1.73 (ng/mL)/millions cells | 6.9 | Heathly Cell Viability MHN [16]: 99.0%
4 | COc1ccc(Nc2ccnc3cc(Cl)ccc23)cc1O [Compound 43, 7-chloro-N-(3-(hydroxy)-4-(methoxy)phenyl)quinolin-4-amine] |  | around 5 mM |  | 55.0 | 1875.1 | 29.5 | 15.6 | 3.08 fold relative to DMSO-treated control | 0.62 fold relative to DMSO-treated control | 51.1 | 32.4 | 0.41 (ng/mL)/millions cells | 30.5 | Microsomal stability, mouse liver (5 min), percentage of the remaining compound [17]: 41% ± 3; Microsomal stability, mouse liver (5 min), percentage of the remaining compound ([17]; listed as compound 43): 41%
